Entries after “also recorded” stand apart in the source; their conditions may differ.
Key:
[1] = test system: HES cells; assay: Survival of HES cells after trypsin treatment, individualized and seeded in TeSR medium; type: cell-based, human; details: 0.1% trypsin; seeding onto Matrigel coated plates in TeSR medium
From the text: The inventors utilized the system described in Example 1 and developed procedures for passaging of HES cells that were based on simple liquid handling protocols. Recent innovations in splitting techniques allowed for efficient automation of this otherwise demanding manual procedure. Since HES cells require cell-cell contacts for survival in TeSR media, they needed to be seeded in clumps which required scraping of attached cells, a procedure which would be very hard to automate.
For automated passaging, the following procedure was developed: After retrieval of the mother plate from the incubator, the wash tool removes the spent media as described in aim 1. The 8-channel 200 μl pipetting tool MP200 is used to add […] of trypsin (0.1%). […] The cells are washed off the plate surface and mixed using the 8-channel MP200 tool by repetitive dispensing and aspiration. Cells are then dispensed to the daughter plates using the MP200 tool. The cells are then seeded 1 to 32 onto precoated Matrigel plates loaded from the stacker to the Biomek2000. […] The total surface area of the initially used Omnitray turned out to be too large for the throughput of the system at the stage of the next split once the inventors tested methods for passaging HES cells in aim 2. […]

[2] = test system: HES cells; assay: Seeding and colony formation of individualized HES cells in 96-well plates; type: cell-based, human
From the text: For this purpose however the inventors plated 16,000 cells per well, which is a 5-fold higher seeding density, than in the regular propagation and maintenance of undifferentiated HES cells with the automated procedure.

[3] = test system: HES cells; details: Watanabe et al. Nat Biotech (2007); cited from earlier work

Compound	survival of HES cells after trypsin treatment [1]	seeding of individualized HES cells in 96-well plates ([2]; 96-well plates)	colony formation of HES cells from individualized cells ([2]; TeSR1 media)	ability to maintain HES cell growth [3]
Cc1cncc2cccc(S(=O)(=O)N3CCCNCC3C)c12 (stereo in doubt) [H-1152, (S)-(+)-2-Methyl-1-[(4-methyl-5-isoquinolinyl)sulfonyl]homopiperazine]	allow the survival of HES cells after trypsin treatment	allows for very efficient seeding of individualized HES cells in 96-well plates; also recorded: allows for very efficient seeding of individualized human ES cells in 96-well plates	actively increased colony formation	–
O=S(=O)(c1cccc2cnccc12)N1CCNCC1 [HA-100]	allow the survival of HES cells after trypsin treatment	–	–	supports the ability of HA-100 to maintain HES cell growth
